# From US8604065B2, “Pyridyl cyanoguanidine derivatives” (priority 2010, dated 2013)
# Experiments:
# Type in all cases: cell-based
# human B lymphoma BA25 = assay: growth inhibition on BA25 in vitro (MTT); details: BA25 cells, 72 h
# Protocol: (§1) Human pancreatic cancer AsPC-1; human acute lymphocytic leukemia taxol-resistant cell strain CCRF-CEM/T; human adenocarcinoma of lung NCI-H1975; human pharyngeal squamous cell carcinoma Fadu; human B lymphoma BA25; human B lymphoma BA91; human B lymphoma BA127; human stomach cancer NCI-N87; human non-small cell lung cancer A549; human liver cancer SK-Hep-1; human lung cancer NCI-H460; human prostate cancer PC-3.
# (§2) The cells were cultured under the following conditions:
# (§3) complete medium: 90% RPMI1640, 10% FBS; 37° C., 5% CO2, saturated humidity.
# (§4) After cultured to the end of the logarithmic growth phase, the cells were diluted with the complete medium to the required concentration.
# (§5) The cells were seeded in a 96-well microplate at a suitable concentration (CCRF-CEM/T: 20000 cells/well; BA25: 20000 cells/well; BA91: 60000 cells/well; BA127: 60000 cells/well).
# (§6) A 2 mM stock solution was prepared by dissolving test compounds in DMSO, diluted with a base medium (without serum) to form a 20 μM or 2 μM 10× working solution which was diluted using a gradient of 1/3. During dilution, the concentration of DMSO was kept consistent. There were 8 dose groups in total. 12 μl of 10× compound working solution was added to the experimental well until the final volume of each well was 120 μl and the concentration of DMSO was 1‰. Meanwhile, a solvent control group without compounds (PC) and a solvent control group without cells and compounds (NC) were prepared. The cells were further cultured for 72 h.
# (§7) Subsequently, the activity of cells was measured with a microculture tetrozolium (MTT method). Specifically, 30 μl/well of PBS containing 2.5 mg/ml MTT was added, and then the cells were cultured for another 3 h. 100 μl/well of triple lysis buffer (10% SDS, 5% isobutanol, 0.012 M HCl) was added, and the mixture was kept at room temperature to dissolve MTT crystal. OD value at 570 nm was measured with an ELISA analyzer.
# (§8) Inhibition rate of a compound was calculated as follows:
# (§9) Inhibition rate=[1−(OD value of administration group−OD value of NC)/(OD value of PC−OD value of NC)]×100%
# (§10) Inhibition rates were then plotted versus the logarithm of compound concentrations, and fitted with Logistic 4 parameter equation. The compound concentration corresponding to 50% inhibition rate in the curve was IC50 value.
# human B lymphoma BA127 = assay: growth inhibition on BA127 in vitro (MTT); details: BA127 cells, 72 h
# Protocol: as §1, §2, §3, §4, §5, §6, §7, §8, §9, §10
# human B lymphoma BA91 = assay: growth inhibition on BA91 in vitro (MTT); details: BA91 cells, 72 h
# Protocol: as §1, §2, §3, §4, §5, §6, §7, §8, §9, §10
# [1] = system: human pharyngeal squamous cell carcinoma Fadu; assay: growth inhibition on FaDu in vitro (MTT); details: FaDu cells, 72 h
# Protocol: as §1
# (§11) The following cells were cultured under the following conditions, respectively:
# (§12) 37° C., 5% CO2, saturated humidity.
# (§13) The cells were cultured until confluence, digested with a pancreatic enzyme, and prepared into a single cell suspension in a complete medium.
# (§14) The cells were seeded in a 96-well microplate at a suitable concentration (AsPC-1: 8000 cells/well; NCI-H1975: 5000 cells/well; Fadu: 6000 cells/well; NCI-N87: 15000 cells/well), cultured overnight to render them adherent to the bottom.
# as §6, with “in total. 20 μl of” for “in total. 12 μl of”, “well was 200 μl and” for “well was 120 μl and”, “control group (PC) without compounds” for “control group without compounds”
# (§15) Subsequently, the activity of cells was measured with a microculture tetrozolium (MTT method). Specifically, the medium in well was sucked out, a base medium containing 0.5 mg/ml MTT was added in an amount of 100 μl/well, and then the cell was further cultured for 3 h. The medium containing MTT was once again sucked out, 100 μl/well of DMSO was added to dissolve MTT crystal, and OD value at 490 nm was measured with an ELISA analyzer.
# (§16) Inhibition rate of a compound was calculated as follows: Inhibition rate=[1−(OD value of administration group−OD value of NC)/(OD value of PC−OD value of NC)]×100%
# as §10
# [2] = system: human acute lymphocytic leukemia taxol-resistant cell strain CCRF-CEM/T; assay: growth inhibition on CCRF-CEM/T in vitro (MTT); details: CCRF-CEM-T cells, 72 h
# Protocol: as §1, §2, §3, §4, §5, §6, §7, §8, §9, §10
# [3] = system: human stomach cancer NCI-N87; assay: growth inhibition on NCI-N87 in vitro (MTT); details: NCI-N87 cells, 72 h, read-out: growth inhibition effects IC50 (nM) NCI-N87
# Protocol: as §1, §11, §12, §13, §14
# as §6, with “in total. 20 μl of” for “in total. 12 μl of”, “well was 200 μl and” for “well was 120 μl and”, “control group (PC) without compounds” for “control group without compounds”
# (§17) Subsequently, the activity of cells was measured with a microculture tetrozolium (MTT method). […] The medium containing MTT was once again sucked out, 100 μl/well of DMSO was added to dissolve MTT crystal, and OD value at 490 nm was measured with an ELISA analyzer.
# (§18) Inhibition rate of a compound was calculated as follows: Inhibition rate=[1−(OD value of administration group−OD value of NC)/(OD value of PC−OD value of NC)]×100% […]
# [4] = system: human prostate cancer PC-3; assay: growth inhibition on PC-3 in vitro; details: PC-3 cells, read-out: growth inhibition effects IC50 (nM) PC-3
# Excerpt: as §1
# [5] = system: human liver cancer SK-Hep-1; assay: growth inhibition on SK-Hep-1 in vitro; details: SK-HEP1, SK-Hep-1 cells, read-out: growth inhibition effects IC50 (nM) SK-Hep-1
# Excerpt: as §1
# [6] = system: human lung cancer NCI-H460; assay: growth inhibition on NCI-H460 in vitro; details: NCI-H460 cells, read-out: growth inhibition effects IC50 (nM) NCI-H460
# Excerpt: as §1
# [7] = system: human adenocarcinoma of lung NCI-H1975; assay: growth inhibition on NCI-H1975 in vitro (MTT); details: NCI-H1975 cells, 72 h, read-out: growth inhibition effects IC50 (nM) NCI-H1975
# Protocol: as §1, §11, §12, §13, §14
# as §6, with “in total. 20 μl of” for “in total. 12 μl of”, “well was 200 μl and” for “well was 120 μl and”, “control group (PC) without compounds” for “control group without compounds”
# as §17, §18
# [8] = system: human non-small cell lung cancer A549; assay: growth inhibition on A549 in vitro; details: A549 cells, read-out: growth inhibition effects IC50 (nM) A549
# Excerpt: as §1
# [9] = system: Human pancreatic cancer AsPC-1; assay: growth inhibition on AsPC-1 in vitro (MTT); details: ASPC1, Aspc-1 cells, 72 h
# Protocol: as §1, §11, §12, §13, §14
# as §6, with “in total. 20 μl of” for “in total. 12 μl of”, “well was 200 μl and” for “well was 120 μl and”, “control group (PC) without compounds” for “control group without compounds”
# as §15, §16, §10
Structure (SMILES),IC50 (human B lymphoma BA25) [nM],IC50 (human B lymphoma BA127) [nM],IC50 (human B lymphoma BA91) [nM],IC50 [1] [nM],IC50 [2] [nM],IC50 [3] [nM],IC50 [4] [nM],IC50 [5] [nM],IC50 [6] [nM],IC50 [7] [nM],IC50 [8] [nM],IC50 [9] [nM]
"N#C/N=C(\NCCCCCCOc1ccc(OC(F)(F)F)cc1)Nc1ccncc1 [Example 4, N-cyano-N′-(6-(p-trifluoromethoxyphenoxy)hexyl)-N″-(4-pyridyl) guanidine]",12,–,–,–,–,–,–,–,–,–,–,–
"N#C/N=C(\NCCCCCCCCOc1ccccc1OC(F)(F)F)Nc1ccncc1 [Example 6, N-cyano-N′-(8-(o-trifluoromethoxyphenoxy)octyl)-N″-(4-pyridyl) guanidine]",5.6,9.3,9.6,–,–,–,–,–,–,–,–,–
"N#C/N=C(\NCCCCCCOc1ccc(Br)cc1OC(F)(F)F)Nc1ccncc1 [Example 7, N-cyano-N′-(6-(2-trifluoromethoxy-4-bromophenoxy)hexyl)-N″-(4-pyridyl)guanidine]",6.3,6.9,5.8,4.7,5.1,–,–,–,–,–,–,–
"CC(C)(C)c1ccc(OC(F)F)c(OCCCCCCN/C(=N\C#N)Nc2ccncc2)c1 [Example 10, N-cyano-N′-(6-(2-difluoromethoxy-5-tert-butylphenoxy)hexyl)-N″-(4-pyridyl)guanidine]",–,13,3.5,2.4,–,–,–,–,–,–,–,–
"N#C/N=C(\NCCCCCCOc1ccccc1OC(F)(F)F)Nc1ccncc1 [Example 11, N-cyano-N′-(6-(o-trifluoromethoxyphenoxy)hexyl)-N″-(4-pyridyl) guanidine]",1,1.5,1.5,1.5,1.6,1.5,0.2,2.3,8,5.3,3,2.1
"COc1ccccc1OCCCCCCN/C(=N\C#N)Nc1ccncc1 [Control 4, N-cyano-N′-(6-(2-methoxyphenoxy)hexyl)-N″-(4-pyridyl) guanidine]",–,–,–,–,6.9,6.6,2.4,–,38,15.5,9.9,7.3
"N#C/N=C(\NCCCCCCOc1ccccc1OC(F)(F)F)Nc1cccnc1 [Example 2, N-cyano-N′-(6-(o-trifluoromethoxyphenoxy)hexyl)-N″-(3-pyridyl) guanidine]",4.4,4.3,2.7,–,–,–,–,–,–,–,–,–
"N#C/N=C(\NCCCCCCOc1cc(Cl)ccc1OC(F)F)Nc1ccncc1 [Example 1, N-cyano-N′-(6-(2-difluoromethoxy-5-chlorophenoxy)hexyl)-N″-(4-pyridyl) guanidine]",–,1.4,2,1.2,2.2,–,–,–,–,–,–,–
"N#C/N=C(\NCCCCCCOc1ccc(Cl)cc1OC(F)F)Nc1ccncc1 [Example 12, N-cyano-N′-(6-(2-difluoromethoxy-4-chlorophenoxy)hexyl)-N″-(4-pyridyl)guanidine]",–,3.2,< 1,2.8,2.3,–,–,–,–,–,–,2.3
"N#C/N=C(\NCCCCCCOc1ccc(Cl)cc1)Nc1ccncc1 [Control 2, N-cyano-N′-(6-(4-chlorophenoxy)hexyl)-N″-(4-pyridyl) guanidine]",–,–,–,11.7,22,14,2.5,16,83,54,22,19
"N#C/N=C(\NCCCCCOc1ccccc1OC(F)(F)F)Nc1ccncc1 [Example 5, N-cyano-N′-(5-(o-trifluoromethoxyphenoxy)pentyl)-N″-(4-pyridyl) guanidine]",7.3,6.1,6.9,–,–,–,–,–,–,–,–,–
"Cc1ccc(OC(F)F)c(OCCCCCCN/C(=N\C#N)Nc2ccncc2)c1 [Example 16, N-cyano-N′-(6-(5-methyl-2-difluoromethoxyphenoxy)hexyl)-N″-(4-pyridyl)guanidine]",–,1.3,< 1,1.3,2.2,–,–,–,–,–,–,0.9
"N#C/N=C(\NCCCCCCOc1ccccc1Cl)Nc1ccncc1 [Control 3, N-cyano-N′-(6-(2-chlorophenoxy)hexyl)-N″-(4-pyridyl) guanidine, reference compound]",–,–,–,–,6.3,–,–,–,–,–,–,7.2
"COc1ccccc1OCCCCCN/C(=N\C#N)Nc1ccncc1 [Control 1, N-cyano-N′-(5-(o-methoxyphenoxy)pentyl)-N″-(4-pyridyl) guanidine, reference compound]",–,–,–,–,113,–,–,–,–,–,–,135
